Laboratory results published in patent US5328902A, “7-(substituted)-9-[(substituted glycyl)amido]-6-demethyl-6-deoxytetracyclines” (American Cyanamid Co., priority 1992, dated 1994).
≈ marks a conversion by molar mass, not a printed value. Where two headings read alike, the source gives them in different places.

What was measured:
[1] = tested on: Ps. acruginosa ATCC 27853; experiment: MIC, agar dilution; type: cell-based; conditions: 18 h
[2] = tested on: S. hemolyticus AVHAH 88-3; experiment: MIC, agar dilution; type: cell-based; conditions: Streptococcus pyogenes, AVHAH883, 18 h
E. coli #311 (MP) = experiment: MIC, agar dilution; type: cell-based; conditions: Escherichia coli, 18 h
E. coli UBMS 90-4 Tet M = experiment: microbe, parasite or virus in culture; type: cell-based; conditions: Escherichia coli, UBMS904TETM, 18 h
E. coli UBMS 89-1 Tet M = experiment: microbe, parasite or virus in culture; type: cell-based; conditions: Escherichia coli, UBMS891TETM, 18 h
E. coli PRP1 Tet A = experiment: microbe, parasite or virus in culture; type: cell-based; conditions: Escherichia coli, PRP1TETA, 18 h
E. coli J3272 Tet sens. = experiment: MIC, agar dilution; type: cell-based; conditions: Escherichia coli, 18 h, read-out: MIC
E. coli J3272 Tet D = experiment: microbe, parasite or virus in culture; type: cell-based; conditions: Escherichia coli, J3272TETD, 18 h
E. faecalis ATCC 29212 = experiment: MIC, agar dilution; type: cell-based; conditions: Enterococcus faecalis, ATCC29212, 18 h
S. mariescens FPOR 8733 = experiment: MIC, agar dilution; type: cell-based; conditions: 18 h, read-out: MIC
S. aureus IVES 2943 = experiment: MIC, agar dilution; type: cell-based; conditions: Staphylococcus aureus, IVES2943, 18 h
S. aureus ATCC 29213 = experiment: MIC, agar dilution; type: cell-based; conditions: Staphylococcus aureus, ATCC29213, 18 h
E. coli J2175 = experiment: MIC, agar dilution; type: cell-based; conditions: Escherichia coli, J2175, 18 h
E. coli J3272 Tet C = experiment: microbe, parasite or virus in culture; type: cell-based; conditions: Escherichia coli, J3272TETC, 18 h
S. aureus NEMC 8769 = experiment: MIC, agar dilution; type: cell-based; conditions: Staphylococcus aureus, NEMC8769, 18 h
[3] = tested on: S. aureus UBMS 90-1 Tet M; experiment: microbe, parasite or virus in culture; type: cell-based; conditions: Staphylococcus aureus, UBMS901TETM, 18 h
[4] = tested on: E. coli MC 4100 TNIOC Tet B; experiment: microbe, parasite or virus in culture; type: cell-based; conditions: Escherichia coli, 18 h
[5] = tested on: S. aureus UBMS 88-5 Tet M; experiment: microbe, parasite or virus in culture; type: cell-based; conditions: Staphylococcus aureus, UBMS885TETM, 18 h
S. aureus UBMS 88-4 = experiment: MIC, agar dilution; type: cell-based; conditions: Staphylococcus aureus, UBMS884, 18 h
S. aureus UBMS 90-3 = experiment: MIC, agar dilution; type: cell-based; conditions: Staphylococcus aureus, UBMS903, 18 h
S. aureus SMITH (MP) = experiment: MIC, agar dilution; type: cell-based; conditions: Staphylococcus aureus, 18 h
[6] = tested on: S. aureus UBMS 88-7 Tet K; experiment: microbe, parasite or virus in culture; type: cell-based; conditions: Staphylococcus aureus, UBMS887TETK, 18 h
E. coli ATCC 25922 = experiment: MIC, agar dilution; type: cell-based; conditions: Escherichia coli, ATCC25922, 18 h
E. coli UBMS 88-1 Tet B = experiment: microbe, parasite or virus in culture; type: cell-based; conditions: Escherichia coli, UBMS881TETB, 18 h
[7] = tested on: S. aureus UBMS 90-2 Tet M; experiment: microbe, parasite or virus in culture; type: cell-based; conditions: Staphylococcus aureus, UBMS902TETM, 18 h
Enterococcus 12201 = experiment: MIC, agar dilution; type: cell-based; conditions: Enterococcus, 12201, 18 h
[8] = tested on: E. coli UBMS 89-2 Tet sens.; experiment: MIC, agar dilution; type: cell-based; conditions: Escherichia coli, 18 h
S. aureus ROSE (MP) = experiment: MIC, agar dilution; type: cell-based; conditions: Staphylococcus aureus, 18 h
S. aureus IVES 1 983 = experiment: MIC, agar dilution; type: cell-based; conditions: Staphylococcus aureus, IVES1983, 18 h
E. coli UBMS 90-5 = experiment: MIC, agar dilution; type: cell-based; conditions: Escherichia coli, UBMS905, 18 h, read-out: MIC
E. coli BAJ9003 IMP MUT = experiment: microbe, parasite or virus in culture; type: cell-based; conditions: Escherichia coli, BAJ9003IMPMUT, 18 h
[9] = tested on: Wild Type S30 (wild type ribosomes, E. coli strain MRE600, tetracycline sensitive); experiment: E. coli in vitro protein translation system, wild type S30

Row | Compound | MIC [1] [µg/mL] | MIC (E. coli #311 (MP)) [µg/mL] | MIC (E. coli UBMS 89-1 Tet M) [µg/mL] | MIC (E. coli J3272 Tet sens.) [µg/mL] | MIC (E. coli J3272 Tet D) [µg/mL] | MIC (E. faecalis ATCC 29212) [µg/mL] | MIC (S. mariescens FPOR 8733) [µg/mL] | MIC (S. aureus IVES 2943) [µg/mL] | MIC (E. coli J2175) [µg/mL] | MIC (E. coli J3272 Tet C) [µg/mL] | MIC [3] [µg/mL] | MIC [4] [µg/mL] | MIC [5] [µg/mL] | MIC (S. aureus UBMS 88-4) [µg/mL] | MIC (S. aureus UBMS 90-3) [µg/mL] | MIC (E. coli ATCC 25922) [µg/mL] | MIC (E. coli UBMS 88-1 Tet B) [µg/mL] | MIC [7] [µg/mL] | MIC [8] [µg/mL] | MIC (S. aureus ROSE (MP)) [µg/mL] | also measured
1 | CN(C)[C@@H]1C(=O)C(C(N)=O)=C(O)[C@@]2(O)C(=O)C3=C(O)c4c(O)cccc4[C@@](C)(O)[C@H]3C[C@@H]12 [N, Tetracycline] | 8 (≈ 18 µM) | 1 (≈ 2.25 µM) | 8 (≈ 18 µM) | 0.5 (≈ 1.13 µM) | > 32 | 8 (≈ 18 µM) | 32 (≈ 72 µM) | > 32 | 1 (≈ 2.25 µM) | > 32 | 32 (≈ 72 µM) | > 32 | > 32 | 0.06 (≈ 0.135 µM) | 0.06 (≈ 0.135 µM) | 0.5 (≈ 1.13 µM) | > 32 | 32 (≈ 72 µM) | 1 (≈ 2.25 µM) | > 32 | MIC [2]: 0.5 µg/mL (≈ 1.13 µM); MIC (E. coli UBMS 90-4 Tet M): 16 µg/mL (≈ 36 µM); MIC (E. coli PRP1 Tet A): 32 µg/mL (≈ 72 µM); MIC (S. aureus ATCC 29213): 0.06 µg/mL (≈ 0.135 µM); MIC (S. aureus NEMC 8769): 0.03 µg/mL (≈ 0.0675 µM); MIC (S. aureus SMITH (MP)): 0.06 µg/mL (≈ 0.135 µM); MIC [6]: > 32 µg/mL; MIC (Enterococcus 12201): 32 µg/mL (≈ 72 µM); MIC (S. aureus IVES 1 983): > 32 µg/mL; MIC (E. coli UBMS 90-5): 1 µg/mL (≈ 2.25 µM); MIC (E. coli BAJ9003 IMP MUT): 0.25 µg/mL (≈ 0.563 µM)
2 | CN(C)c1ccc(O)c2c1C[C@H]1C[C@H]3[C@H](N(C)C)C(O)=C(C(N)=O)C(=O)[C@@]3(O)C(O)=C1C2=O [O, Minocycline, reference compound] | 8 (≈ 17.5 µM) | 0.25 (≈ 0.546 µM) | 8 (≈ 17.5 µM) | 0.5 (≈ 1.09 µM) | 8 (≈ 17.5 µM) | 1 (≈ 2.19 µM) | 2 (≈ 4.37 µM) | 2 (≈ 4.37 µM) | 0.5 (≈ 1.09 µM) | 2 (≈ 4.37 µM) | 4 (≈ 8.74 µM) | 8 (≈ 17.5 µM) | 4 (≈ 8.74 µM) | 0.03 (≈ 0.0656 µM) | 0.03 (≈ 0.0656 µM) | 0.5 (≈ 1.09 µM) | 16 (≈ 35 µM) | 2 (≈ 4.37 µM) | 0.5 (≈ 1.09 µM) | 0.5 (≈ 1.09 µM) | % Inhibition Wild Type S30 ([9]; Conc. 0.06 mg/ml): 78%; % Inhibition Wild Type S30 ([9]; Conc. 1.0 mg/ml): 98%; inhibition of protein synthesis occuring on wild type ribosomes ([9]; coupled transcription and translation system): effectively inhibit protein synthesis; MIC (S. aureus ATCC 29213; S. aureus ATCC 29213, read-out: MIC): 0.03 µg/mL (≈ 0.0656 µM); MIC (S. aureus NEMC 8769; S. aureus NEMC 8769, read-out: MIC): < 0.015 µg/mL; MIC (S. aureus SMITH (MP); S. aureus SMITH (MP), read-out: MIC): 0.03 µg/mL (≈ 0.0656 µM); MIC (S. aureus IVES 1 983): 2 µg/mL (≈ 4.37 µM); MIC (E. coli UBMS 90-5): 0.5 µg/mL (≈ 1.09 µM); MIC (E. coli BAJ9003 IMP MUT): 0.03 µg/mL (≈ 0.0656 µM)
